Laboratory results reported in US11787825B2 (priority 2021, dated 2023).
Converted amounts (≈) assume the structure as drawn. Read-outs that look alike come from different tables or passages of the source.

Assays:
physchem = details: 25 °C, thermodynamic from solid
[1] = 0.1N HCL, 1.0% DMSO, 24-hour incubation at ambient temperature, maximum theoretical compound concentration 100 μM
[2] = 1×PBS buffer (pH 7.4), 1.0% DMSO, 24-hour incubation at ambient temperature, maximum theoretical compound concentration 100 μM
[3] = fed state simulated intestinal fluid (FeSSIF), fessif
[4] = fasted state simulated intestinal fluid (FaSSIF), fassif

pH 2 solubility [1]	pH 7 solubility [2]	solubility (physchem; [3])	solubility (physchem; [4])	SMILES	solubility (physchem; fassif)	pH 2 solubility (pH 2)	pH 7 solubility (pH 7.4)	solubility (physchem; fessif)
100 μM	27 μM	0.2 µg/mL (≈ 0.178 µM)	–	CC(C)(C#Cc1ccc(-c2ccc(Cl)c3c(N(C(=O)[C@@H](N)CCCNC(=N)N)S(C)(=O)=O)nn(CC(F)(F)F)c23)c([C@H](Cc2cc(F)cc(F)c2)NC(=O)Cn2nc(C(F)(F)F)c3c2C(F)(F)[C@@H]2C[C@H]32)n1)S(C)(=O)=O [Compound 22, 2-amino-N-(4-chloro-7-(2-((S)-1-(2-((3bS,4aR)-5,5-difluoro-3-(trifluoromethyl)-3b,4,4a,5-tetrahydro-1H-cyclopropa[3,4]cyclopenta[1,2-c]pyrazolyl)acetamido)-2-(3,5-difluorophenyl)ethyl)-6-(3-methyl-3-(methylsulfonyl)but-1-ynyl)pyridin-3-yl)-1-(2,2,2-trifluoroethyl)-1H-indazol-3-yl)-5-guanidino-N-(methylsulfonyl)pentanamide]	–	–	–	–
1 μM	26 μM	450 µg/mL	190 µg/mL	CC(C)(C#Cc1ccc(-c2ccc(Cl)c3c(N(C(=O)CCCOP(=O)(O)O)S(C)(=O)=O)nn(CC(F)(F)F)c23)c([C@H](Cc2cc(F)cc(F)c2)NC(=O)Cn2nc(C(F)(F)F)c3c2C(F)(F)[C@@H]2C[C@H]32)n1)S(C)(=O)=O [Compound 27, 4-(N-(4-chloro-7-(2-((S)-1-(2-((3bS,4aR)-5,5-difluoro-3-(trifluoromethyl)-3b,4,4a,5-tetrahydro-1H-cyclopropa[3,4]cyclopenta[1,2-c]pyrazol-1-yl)acetamido)-2-(3,5-difluorophenyl)ethyl)-6-(3-methyl-3-(methylsulfonyl)but-1-yn-1-yl)pyridin-3-yl)-1-(2,2,2-trifluoroethyl)-1H-indazol-3-yl)methylsulfonamido)-4-oxobutyl dihydrogen phosphate]	–	–	–	–
2 μM	92 μM	130 µg/mL (≈ 109 µM)	268 µg/mL (≈ 225 µM)	CC(C)(C#Cc1ccc(-c2ccc(Cl)c3c(N(C(=O)CCCC(=O)OCOP(=O)(O)O)S(C)(=O)=O)nn(CC(F)(F)F)c23)c([C@H](Cc2cc(F)cc(F)c2)NC(=O)Cn2nc(C(F)(F)F)c3c2C(F)(F)[C@@H]2C[C@H]32)n1)S(C)(=O)=O [Compound 29, (phosphonooxy)methyl 5-(N-(4-chloro-7-(2-((S)-1-(2-((3bS,4aR)-5,5-difluoro-3-(trifluoromethyl)-3b,4,4a,5-tetrahydro-1H-cyclopropa[3,4]cyclopenta[1,2-c]pyrazol-1-yl)acetamido)-2-(3,5-difluorophenyl)ethyl)-6-(3-methyl-3-(methylsulfonyl)but-1-yn-1-yl)pyridin-3-yl)-1-(2,2,2-trifluoroethyl)-1H-indazol-3-yl)methylsulfonamido)-5-oxopentanoate]	–	–	–	–
1 μM	87 μM	3870 µg/mL (≈ 3000 µM)	1190 µg/mL (≈ 921 µM)	CC(C)(C#Cc1ccc(-c2ccc(Cl)c3c(N(C(=O)CC4(CN(CC(=O)O)C(=O)OCOP(=O)(O)O)CC4)S(C)(=O)=O)nn(CC(F)(F)F)c23)c([C@H](Cc2cc(F)cc(F)c2)NC(=O)Cn2nc(C(F)(F)F)c3c2C(F)(F)[C@@H]2C[C@H]32)n1)S(C)(=O)=O [Compound 39]	–	–	–	–
–	–	–	–	CC(C)(C#Cc1ccc(-c2ccc(Cl)c3c(N(C(=O)Cc4ccccc4OP(=O)(O)O)S(C)(=O)=O)nn(CC(F)(F)F)c23)c([C@H](Cc2cc(F)cc(F)c2)NC(=O)Cn2nc(C(F)(F)F)c3c2C(F)(F)[C@@H]2C[C@H]32)n1)S(C)(=O)=O [Compound 45, 2-(2-(N-(4-chloro-7-(2-((S)-1-(2-((3bS,4aR)-5,5-difluoro-3-(trifluoromethyl)-3b,4,4a,5-tetrahydro-1H-cyclopropa[3,4]cyclopenta[1,2-c]pyrazol-1-yl)acetamido)-2-(3,5-difluorophenyl)ethyl)-6-(3-methyl-3-(methylsulfonyl)but-1-yn-1-yl)pyridin-3-yl)-1-(2,2,2-trifluoroethyl)-1H-indazol-3-yl)methylsulfonamido)-2-oxoethyl)phenyl dihydrogen phosphate]	456 µg/mL	1/1 μM	1/1 μM	129 µg/mL
–	–	–	–	CC(C)(C#Cc1ccc(-c2ccc(Cl)c3c(N(C(=O)Cc4ccc(OP(=O)(O)O)cc4)S(C)(=O)=O)nn(CC(F)(F)F)c23)c([C@H](Cc2cc(F)cc(F)c2)NC(=O)Cn2nc(C(F)(F)F)c3c2C(F)(F)[C@@H]2C[C@H]32)n1)S(C)(=O)=O [Compound 51, 4-(2-(N-(4-chloro-7-(2-((S)-1-(2-((3bS,4aR)-5,5-difluoro (trifluoromethyl)-3b,4,4a,5-tetrahydro-1H-cyclopropa[3,4]cyclopenta[1,2-c]pyrazolyl)acetamido)-2-(3,5-difluorophenyl)ethyl)-6-(3-methyl-3-(methylsulfonyl)but-1-ynyl)pyridin-3-yl)-1-(2,2,2-trifluoroethyl)-1H-indazol-3-yl)methylsulfonamido)oxoethyl)phenyl dihydrogen phosphate]	1750 µg/mL	1/100 μM	1/100 μM	1450 µg/mL
–	–	–	–	CN(C(=O)N(c1nn(CC(F)(F)F)c2c(-c3ccc(C#CC(C)(C)S(C)(=O)=O)nc3[C@H](Cc3cc(F)cc(F)c3)NC(=O)Cn3nc(C(F)(F)F)c4c3C(F)(F)[C@@H]3C[C@H]43)ccc(Cl)c12)S(C)(=O)=O)c1ccccc1OP(=O)(O)O [Compound 54, 2-(3-(4-chloro-7-(2-((S)-1-(2-((3bS,4aR)-5,5-difluoro-3-(trifluoromethyl)-3b,4,4a,5-tetrahydro-1H-cyclopropa[3,4]cyclopenta[1,2-c]pyrazol-1-yl)acetamido)-2-(3,5-difluorophenyl)ethyl)-6-(3-methyl-3-(methylsulfonyl)but-1-yn-1-yl)pyridin-3-yl)-1-(2,2,2-trifluoroethyl)-1H-indazol-3-yl)-1-methyl-3-(methylsulfonyl)ureido)phenyl dihydrogen phosphate]	1090 µg/mL	1/63 μM	1/63 μM	561 µg/mL
–	–	–	–	Cc1cc(CP(=O)(O)O)cc(OP(=O)(O)O)c1C(C)(C)CC(=O)N(c1nn(CC(F)(F)F)c2c(-c3ccc(C#CC(C)(C)S(C)(=O)=O)nc3[C@H](Cc3cc(F)cc(F)c3)NC(=O)Cn3nc(C(F)(F)F)c4c3C(F)(F)[C@@H]3C[C@H]43)ccc(Cl)c12)S(C)(=O)=O [Compound 56, (4-(4-(N-(4-chloro-7-(2-((S)-1-(2-((3bS,4aR)-5,5-difluoro-3-(trifluoromethyl)-3b,4,4a,5-tetrahydro-1H-cyclopropa[3,4]cyclopenta[1,2-c]pyrazolyl)acetamido)-2-(3,5-difluorophenyl)ethyl)-6-(3-methyl-3-(methylsulfonyl)but-1-ynyl)pyridin-3-yl)-1-(2,2,2-trifluoroethyl)-1H-indazol-3-yl)methylsulfonamido)-2-methyloxobutan-2-yl)-3-methyl-5-(phosphonooxy)benzyl)phosphonic acid]	> 10000 µg/mL	1/100 μM	1/100 μM	–

SMILES	pH 2 solubility [1]	pH 7 solubility [2]	solubility (physchem; [3])	solubility (physchem; [4])	solubility (physchem; fassif)	pH 2 solubility (pH 2)	pH 7 solubility (pH 7.4)	solubility (physchem; fessif)
CC(C)(C#Cc1ccc(-c2ccc(Cl)c3c(N(C(=O)CNC(=O)OCOP(=O)(O)O)S(C)(=O)=O)nn(CC(F)(F)F)c23)c([C@H](Cc2cc(F)cc(F)c2)NC(=O)Cn2nc(C(F)(F)F)c3c2C(F)(F)[C@@H]2C[C@H]32)n1)S(C)(=O)=O [Compound 35, (phosphonooxy)methyl (2-(N-(4-chloro-7-(2-((S)-1-(2-((3bS,4aR)-5,5-difluoro-3-(trifluoromethyl)-3b,4,4a,5-tetrahydro-111-cyclopropa[3,4]cyclopenta[1,2-c]pyrazol-1-yl)acetamido)-2-(3,5-difluorophenyl)ethyl)-6-(3-methyl-3-(methylsulfonyl)but-1-yn-1-yl)pyridin-3-yl)-1-(2,2,2-trifluoroethyl)-1H-indazol-3-yl)methylsulfonamido)-2-oxoethyl)carbamate]	2 μM	48 μM	–	–	883 µg/mL (≈ 749 µM)	–	–	–
C[C@H](NC(=O)OCOP(=O)(O)O)C(=O)N(c1nn(CC(F)(F)F)c2c(-c3ccc(C#CC(C)(C)S(C)(=O)=O)nc3[C@H](Cc3cc(F)cc(F)c3)NC(=O)Cn3nc(C(F)(F)F)c4c3C(F)(F)[C@@H]3C[C@H]43)ccc(Cl)c12)S(C)(=O)=O [Compound 36, (phosphonooxy)methyl ((S)-1-(N-(4-chloro-7-(2-((S)-1-(2-((3bS,4aR)-5,5-difluoro-3-(trifluoromethyl)-3b,4,4a,5-tetrahydrocyclopropa[3,4]cyclopenta[1,2-c]pyrazol-1-yl)acetamido)-2-(3,5-difluorophenyl)ethyl)-6-(3-methyl-3-(methylsulfonyl)but-1-yn-1-yl)pyridin-3-yl)-1-(2,2,2-trifluoroethyl)-1H-indazolyl)methylsulfonamido)-1-oxopropan-2-yl)carbamate]	3 μM	100 μM	–	–	661 µg/mL (≈ 554 µM)	–	–	–
CN(CC(=O)N(c1nn(CC(F)(F)F)c2c(-c3ccc(C#CC(C)(C)S(C)(=O)=O)nc3[C@H](Cc3cc(F)cc(F)c3)NC(=O)Cn3nc(C(F)(F)F)c4c3C(F)(F)[C@@H]3C[C@H]43)ccc(Cl)c12)S(C)(=O)=O)C(=O)OCOP(=O)(O)O [Compound 37, (phosphonooxy)methyl (2-(N-(4-chloro-7-(2-((S)-1-(2-((3bS,4aR)-5,5-difluoro-3-(trifluoromethyl)-3b,4,4a,5-tetrahydro-111-cyclopropa[3,4]cyclopenta[1,2-c]pyrazol-1-yl)acetamido)-2-(3,5-difluorophenyl)ethyl)-6-(3-methyl-3-(methylsulfonyl)but-1-yn-1-yl)pyridin-3-yl)-1-(2,2,2-trifluoroethyl)-1H-indazol-3-yl)methylsulfonamido)-2-oxoethyl)(methyl)carbamate]	1 μM	79 μM	–	–	674 µg/mL (≈ 565 µM)	–	–	–
